# Where two headings read alike, the source gives them in different places.
# Target: T1, human NPC1L1 (Homo sapiens, UniProt Q9UHC9)
# T1 construct: expressed in transfected cells
# T1 sequence (Q9UHC9 22-1359): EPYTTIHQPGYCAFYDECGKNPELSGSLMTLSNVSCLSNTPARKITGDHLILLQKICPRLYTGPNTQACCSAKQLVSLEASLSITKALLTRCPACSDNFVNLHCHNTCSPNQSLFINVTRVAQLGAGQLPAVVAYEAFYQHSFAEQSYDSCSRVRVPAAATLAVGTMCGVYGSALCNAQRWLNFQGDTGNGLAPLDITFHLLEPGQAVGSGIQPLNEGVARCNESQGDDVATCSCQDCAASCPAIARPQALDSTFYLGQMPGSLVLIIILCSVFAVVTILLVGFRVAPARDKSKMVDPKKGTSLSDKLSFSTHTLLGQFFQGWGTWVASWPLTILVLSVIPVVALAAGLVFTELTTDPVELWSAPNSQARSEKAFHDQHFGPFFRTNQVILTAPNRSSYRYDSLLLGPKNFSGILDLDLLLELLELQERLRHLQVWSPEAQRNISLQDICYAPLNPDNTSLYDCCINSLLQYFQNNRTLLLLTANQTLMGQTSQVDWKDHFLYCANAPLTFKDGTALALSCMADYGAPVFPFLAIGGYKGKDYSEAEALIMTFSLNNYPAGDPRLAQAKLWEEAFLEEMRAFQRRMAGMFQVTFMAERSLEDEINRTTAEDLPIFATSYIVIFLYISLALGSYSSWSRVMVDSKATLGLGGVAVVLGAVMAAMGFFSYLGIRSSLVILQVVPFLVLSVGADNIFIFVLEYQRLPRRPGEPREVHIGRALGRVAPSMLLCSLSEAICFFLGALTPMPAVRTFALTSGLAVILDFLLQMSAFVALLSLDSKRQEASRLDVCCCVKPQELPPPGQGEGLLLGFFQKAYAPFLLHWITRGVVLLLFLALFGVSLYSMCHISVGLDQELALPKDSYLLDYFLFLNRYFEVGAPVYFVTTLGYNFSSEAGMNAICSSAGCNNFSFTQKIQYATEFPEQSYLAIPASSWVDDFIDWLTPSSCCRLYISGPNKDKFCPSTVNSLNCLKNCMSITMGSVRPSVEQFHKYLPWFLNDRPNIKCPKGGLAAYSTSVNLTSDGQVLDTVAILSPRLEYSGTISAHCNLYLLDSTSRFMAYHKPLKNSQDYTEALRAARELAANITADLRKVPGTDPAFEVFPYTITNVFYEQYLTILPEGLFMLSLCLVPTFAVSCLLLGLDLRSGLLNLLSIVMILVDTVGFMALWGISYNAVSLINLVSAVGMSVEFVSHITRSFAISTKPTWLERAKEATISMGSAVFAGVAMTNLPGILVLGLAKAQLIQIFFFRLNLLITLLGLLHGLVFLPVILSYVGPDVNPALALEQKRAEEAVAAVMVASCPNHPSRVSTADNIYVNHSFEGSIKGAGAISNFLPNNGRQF
# Test: [3H]cholesterol flux into hNPC1L1/MDCKII-Flp cells
# Assay type: cell-based
# Conditions: for IC50: hNPC1L1/MDCKII-Flp
# Procedure: Flux assays were performed essentially as described by Yu et al., 2006 J Biol. Chem. 281:6616-6624. Briefly, cell growth medium was completely aspirated and replaced with 200 μl of 5% LPDS containing the appropriate concentration of compound and incubated at 37° C./3 h in a 5% CO2 incubator. Media was subsequently aspirated from cells and cells were incubated in 200 μl of 0-5.5% βmCD dissolved and filtered through a […] filter at 37° C./45 minutes in a 5% CO2 incubator. Media was dumped from cells that were then washed twice with 125 μl of 5% LPDS before media was aspirated and [3H]cholesterol complexed to BSA in 5% LPDS was added; see Yu et al., 2006 J. Biol. Chem. 281:6616-6624. After 45 minute incubation, cells were washed twice with DMEM, thoroughly aspirated and then 1% SDS was added prior to extraction for scintillation counting.
# To validate MDCKII cells as an appropriate surrogate system for monitoring NPC1L1-dependent processes, we evaluated their ability to perform EZE-sensitive cholesterol flux using a similar protocol to that recently reported. This assay makes use of the ability of βmCD to deplete membrane-bound cholesterol. Subsequent exposure of cells to [^3H] cholesterol provides a time-dependent flux of this substrate into the cells. […] In an attempt to improve the assay window, a stable MDCKII-Flp cell line over-expressing human NPC1L1, hNPC1L1/MDCKII-Flp, was generated.
# To further characterize the [^3H] cholesterol influx process into MDCK cells, the potency of EZE-like compound PS for inhibiting [^3H] cholesterol uptake was determined.
# [1] = FIG. 7D, read-out: IC50 block of [3H]cholesterol flux
Structure (SMILES),"blockade of [3H]cholesterol influx (10 μM PS, 5.5% βmCD treatment)","IC50 (FIG. 7C, read-out: IC50 inhibition of [3H]cholesterol uptake) [nM]",IC50 [1] [nM]
"COC(=O)[C@H]1O[C@@H](Oc2ccc([C@@H]3[C@@H](CC[C@H](O)c4ccc(F)cc4)C(=O)N3c3ccc(C#CCNS(C)(=O)=O)cc3)cc2)[C@H](O)[C@@H](O)[C@@H]1O [PS, 4-[(2S,3R)-3-[(3S)-3-(4-fluorophenyl)-3-hydroxypropyl]-1-(4-{3-[(methylsulfonyl)amino]prop-1-yn-1-yl}phenyl)-4-oxoazetidin-2-yl]phenyl methyl-β-D-glucopyranosiduronate]",almost completely blocked,10.3 ± 1.5,7
"O=C(O)[C@H]1O[C@@H](Oc2ccc([C@@H]3[C@@H](CC[C@H](O)c4ccc(F)cc4)C(=O)N3c3ccc(F)cc3)cc2)[C@H](O)[C@@H](O)[C@@H]1O [EZE-gluc, ezetimibe glucuronide]",–,–,300
"O=C1[C@H](CC[C@H](O)c2ccc(F)cc2)[C@@H](c2ccc(O)cc2)N1c1ccc(F)cc1 [EZE, Ezetimibe]",–,–,> 1000
